# Read-outs that look alike come from different tables or passages of the source.
# Columns and labels:
# [1] = n-octanol/water (PBS) partition coefficient (K par) of the chelators and their iron complexes; format: physicochemical; settings: for K par Chelator / K par Iron Complex: n-octanol/water (PBS), Table 4; for K par Chelator / Kpar Chelator: free chelator; for K par Iron Complex: iron complex of the chelator; for Kpar Chelator / Kpar iron Complex: n-octanol/phosphate buffer saline (PH 7.3), Table 7
# Experimental: The n-octanol/water (PBS) partition coefficients (K par) of the chelators and their iron complexes were determined using a previously determined method.
# (§1) The partition coefficients of the chelators and their iron complexes were determined using a mixture of n-octanol and phosphate buffer saline at pH 7.3 as previously described. The effect of the chelators on the incorporation of iron containing traces of ⁵⁹Fe into red blood cells was studied as previously described by incubating the chelator iron complexes with packed red blood cells at 37°C, withdrawing aliquots, centrifuging and measuring the incorporation of ⁵⁹Fe into the red blood cells.
# [2] = pKa determination of the chelators; format: physicochemical
# [3] = test system: iron loaded ⁵⁹Fe transferrin labelled mice; assay: Iron mobilisation (59Fe excretion) from iron loaded 59Fe transferrin labelled mice; format: in vivo; settings: dose 10mg; for %⁵⁹Fe excretion X ± SE: mice 31-35g, mean of 3 days before chelator administration = 100%
# Text: Iron mobilisation from iron loaded ⁵⁹Fe transferrin labelled mice by the 1-alkyl-2-ethyl-3-hydroxypyrid-4-ones was studied as previously described.
# human transferrin = molecular target: T1, human transferrin (Homo sapiens, UniProt P02787); assay: Iron mobilisation from 59Fe transferrin by dialysis against chelator solution; format: biochemical; settings: chelator 4x10⁻³M, 37°C, pH 7.3, 2 x PBS
# T1 construct: purchased Sigma
# T1 sequence (P02787 20-698): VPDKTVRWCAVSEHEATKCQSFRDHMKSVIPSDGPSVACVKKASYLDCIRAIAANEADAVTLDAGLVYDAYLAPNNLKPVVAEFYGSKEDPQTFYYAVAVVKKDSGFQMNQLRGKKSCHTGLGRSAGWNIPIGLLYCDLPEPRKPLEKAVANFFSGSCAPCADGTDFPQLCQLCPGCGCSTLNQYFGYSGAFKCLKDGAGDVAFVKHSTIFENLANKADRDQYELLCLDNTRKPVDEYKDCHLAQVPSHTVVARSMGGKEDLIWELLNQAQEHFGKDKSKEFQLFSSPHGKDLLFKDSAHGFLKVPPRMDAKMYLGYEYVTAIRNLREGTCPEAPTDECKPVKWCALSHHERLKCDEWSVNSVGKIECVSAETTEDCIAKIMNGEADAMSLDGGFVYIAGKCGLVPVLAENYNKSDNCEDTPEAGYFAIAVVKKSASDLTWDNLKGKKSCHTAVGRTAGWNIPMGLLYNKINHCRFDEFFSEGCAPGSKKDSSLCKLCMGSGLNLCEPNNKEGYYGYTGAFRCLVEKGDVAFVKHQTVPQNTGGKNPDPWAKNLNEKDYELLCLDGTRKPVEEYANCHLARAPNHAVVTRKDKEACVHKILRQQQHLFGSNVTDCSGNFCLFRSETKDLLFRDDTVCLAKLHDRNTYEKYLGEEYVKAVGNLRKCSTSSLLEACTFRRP
# Experimental: Human apotransferrin (Sigma) was radioactively labelled with ⁵⁹Fe and saturated with iron as previously described. Samples (1.5ml) of the ⁵⁹Fe transferrin (0.54mg protein, 0.75 µg iron, 0.07 µCi ⁵⁹Fe) were enclosed in a dialysis bag and dialysed against a chelator solution (10ml, 4mM) by continuous stirring at 37°C. Samples (1ml) of the dialysate were removed at different time intervals, the ⁵⁹Fe activity measured and then returned back into the incubation mixture. Ferritin solution and haemosiderin solid were isloated from a spleen of a thalassemia patient and samples containing the same amount of iron (0.25mg, 1.5ml) were dialysed at 37°C against a chelator solution (4mM, 10ml) over a 12 day period. The amount of iron immobilised was estimated spectrophotometrically by measuring the visible absorbance of the dialysate and by using the extinction coefficient of the chelator iron complex (Fig 3, Table 6). All the protein incubations with the chelators were carried out in the 2xPBS pH 7.3.
# Haemosiderin (0.25mg iron, 16.5% w/w iron, […]) ferritin (0.25mg iron, 10.7% w/w iron, 1.5ml) and transferrin (0.75ug iron, 0.54mg protein, 0.07 uCi ⁵⁹Fe, 1.5ml) in dialysis bags were dialysed against the chelators (4x10⁻³M, 10ml) at 37°C, pH 7.3 in 2 x PBS by continuous stirring. Iron mobilisation was estimated from samples of the dialysates taken at different time intervals as explained in the Materials and Methods section.
# haemosiderin = assay: Iron mobilisation from haemosiderin by dialysis against chelator solution; format: biochemical, human; settings: chelator 4x10⁻³M, 37°C, pH 7.3, 2 x PBS, * = duplicate samples
# Experimental: • Fig 1: pH titration of the chelator iron complexes. Chelators (2mM in 0.1M NaCl, 25ml) and freshly prepared iron (III) chloride (0.5mM in 0.1M NaCl, 25ml) were mixed and titrated with HCl (10M) and NaOH (5M). The absorbance of the chelator iron mixture at 460nm was measured after each pH change. 1-Methyl- (Δ), 1-ethyl- (□) and 1-propyl- (◇) -2-ethyl-3-hydroxypyrid-4-ones. • Fig 2: • A. Job plots of the 1-alkyl-2-ethyl-3-hydroxypyrid-4-ones with iron at pH 7.3. Chelators (2mM in […] 0-5ml) and iron (2mM in 0.1M NaCl, 0-5ml) were mixed at different molar ratios to a final volume of 5ml. 4 x PBS (5ml), pH 7.3 was then added and the absorbance at 460nm measured. […] Theoretical Job plots for 1:1, 2:1, 3:1 chelator:iron complexes were obtained using the maximum absorbance values from the Job plots in A. 1:1 (◇) 2:1 (□), 3:1 (Δ). • Fig. 3: Iron mobilisation from human ferritin and haemosiderin using 1-alkyl-2-ethyl-3-hydroxypyrid-4-ones. […] The progress of the reaction was followed by measuring the absorbance at 460nm of the dialysate at different time intervals.
# Human apotransferrin (Sigma) was radioactively labelled with ⁵⁹Fe and saturated with iron as previously described. […] Samples (1ml) of the dialysate were removed at different time intervals, the ⁵⁹Fe activity measured and then returned back into the incubation mixture. […]
# male Sprague Dawley rats = assay: Lethal dose range in rats, intraperitoneal administration; format: in vivo
# Experimental: The three 1-alkyl-3-hydroxy-2-methylpyrid-4-ones dissolved in phosphate buffer saline were administered intraperitoneally to groups of three male Sprague Dawley rats (60-90g) at different doses until a near maximum non-lethal dose was established.
# loaded mice and rabbits = settings: doses of up to 200 mg/kg, also non iron loaded mice; cited from earlier work
# red blood cells = assay: Red blood cell permeability: incorporation of 59Fe into red blood cells in the presence of the chelators; format: cell-based; settings: iron 2.5 x 10⁻⁵M, chelators 18 x 10⁻⁵M, packed red blood cells, 37°C
# Experimental: as §1
# [4] = pKa of the hydroxyl group, read-out: Pka(2)
# [5] = male, Sprague Dawley, rat, in vivo, ip
SMILES,K par Chelator [1],K par Iron Complex [1],"pKa [2, 4]",pKa ([2]; read-out: PKa(1)),%⁵⁹Fe excretion X ± SE ([3]; ig) [%],%⁵⁹Fe excretion X ± SE ([3]; ip) [%],Percentage Iron Removal Transferrin ⁵⁹Fe 1h (human transferrin),Percentage Iron Removal Transferrin ⁵⁹Fe 2h (human transferrin),Percentage Iron Removal Transferrin ⁵⁹Fe 8h (human transferrin),Percentage Iron Removal Haemosiderin 24h (haemosiderin; 24h),Percentage Iron Removal Haemosiderin 12d (haemosiderin; 12d),"death of mice before the completion of the treatment ([3]; mice, ip or ig, 11 administrations)","Lethal Dose (range) (male Sprague Dawley rats; rats, intraperitoneally, range of doses, the higher being lethal and the lower a non-lethal dose) [mg/kg]",Kpar Chelator [1],Kpar iron Complex [1],increasing iron excretion (loaded mice and rabbits),⁵⁹Fe incorporation (%) 20 min (red blood cells) [%],⁵⁹Fe incorporation (%) 1h (red blood cells) [%],Lethal Dose (range) (male Sprague Dawley rats; [5]) [mg/kg]
"CCc1c(O)c(=O)ccn1C [Example 4, 2-Ethyl-3-hydroxy-1-methylpyrid-4-one]",0.4,0.02,9.8,3.7,362 ± 53,415 ± 42,36.0,56.6,100.0,,,,,,,,,,
"CCCn1ccc(=O)c(O)c1CC [Example 6, 2-ethyl-3-hydroxy-1-propylpyrid-4-one]",4.2,9.68,10.1,3.4,163 ± 25,334 ± 64,23.2,50.3,97.6,27.8,74.5,caused death to two mice,,,,,,,
"CCc1c(O)c(=O)ccn1CC [Example 5, 1,2-diethyl-3-hydroxypyrid-4-one]",1.4,0.28,10.1,3.7,309 ± 22,371 ± 46,24.9,51.8,96.6,,,,,,,,,,
"CCn1ccc(=O)c(O)c1C [Example 2, 1-Ethyl-3-hydroxy-2-methylpyrid-4-one]",0.37,0.52,10.3,3.6,,,,,,,,,400 to 500,0.47,0.52,effective,5.0,10,
"Cc1c(O)c(=O)ccn1C [Example 1, 1,2-Dimethyl-3-hydroxypyrid-4-one]",0.19,0.24,9.7,3.3,,,37.3,69.9,99.5,,,,,0.19,0.24,effective,5.0,5.0,600 to 700
"CCCn1ccc(=O)c(O)c1C [Example 3, 3-Hydroxy-2-methyl-1-propylpyrid-4-one]",,,10.2,3.7,,,,,,,,,,,,,85,86,150 to 200
"CC(=O)N(O)CCCCCNC(=O)CCC(=O)N(O)CCCCCNC(=O)CCC(=O)N(O)CCCCCN [Desferrioxamine, reference compound]",,,,,,381 ± 49,,,,,,,,,,,,,

# — patent EP0335745A1, “Process for producing pyrid-4-ones” (THE ROYAL FREE HOSPITAL SCHOOL OF MEDICINE, priority 1988, dated 1989)
